Molecules are shown by their SMILES.

The assay deals with LRRK2 G2019S enzyme (Homo sapiens (Human), UniProt Q5S007, G2019S). In words: LRRK2 G2019S TR-FRET biochemical assay (LRRKtide substrate). Particulars: 134 μM ATP. The procedure: Detection Reaction Conditions • 1× TR-FRET dilution buffer • 10 mM EDTA • 2 nM antibody • 23° C. reaction temperature • 10 μL total reaction volume
Compounds were prepared by initially diluting to 1 mM with DMSO. 35 μL of reference compound solution, 35 μL of test compound solution, and 35 μL HPE were successively added to the source plate (384-well assay plate, Labcyte). The plates were centrifuged at 2500 rpm for 1 minute and sealed in foil. […] The assay plate was centrifuged at 2500 rpm for 1 minute, and sealed with foil.
To perform the enzyme reaction, 5 μL of LRRKtide substrate and kinase mixture in assay buffer was added to all wells of the assay plate. The plate was centrifuged to concentrate the mixture at the bottom of the wells. The assay plate was incubated at 23° C. for 20 minutes. Following incubation, 5 μL of 2× ATP in assay buffer was added to each well, and plates were centrifuged to concentrate the mixture at the bottom of the wells. The plate was incubated at 23° C. for 60 minutes.
To perform the detection of the reaction, EDTA completely mixed in TR-FRET dilution buffer was added to antibody reagent. 10 μL of detection reagent was added to all wells of each well of the assay plate and the plate was centrifuged to concentrate the mixture at the bottom of the wells. The plate was then incubated at 23° C. for 60 minutes.

Sequence of LRRK2 G2019S enzyme (Q5S007 whole entry G2019S): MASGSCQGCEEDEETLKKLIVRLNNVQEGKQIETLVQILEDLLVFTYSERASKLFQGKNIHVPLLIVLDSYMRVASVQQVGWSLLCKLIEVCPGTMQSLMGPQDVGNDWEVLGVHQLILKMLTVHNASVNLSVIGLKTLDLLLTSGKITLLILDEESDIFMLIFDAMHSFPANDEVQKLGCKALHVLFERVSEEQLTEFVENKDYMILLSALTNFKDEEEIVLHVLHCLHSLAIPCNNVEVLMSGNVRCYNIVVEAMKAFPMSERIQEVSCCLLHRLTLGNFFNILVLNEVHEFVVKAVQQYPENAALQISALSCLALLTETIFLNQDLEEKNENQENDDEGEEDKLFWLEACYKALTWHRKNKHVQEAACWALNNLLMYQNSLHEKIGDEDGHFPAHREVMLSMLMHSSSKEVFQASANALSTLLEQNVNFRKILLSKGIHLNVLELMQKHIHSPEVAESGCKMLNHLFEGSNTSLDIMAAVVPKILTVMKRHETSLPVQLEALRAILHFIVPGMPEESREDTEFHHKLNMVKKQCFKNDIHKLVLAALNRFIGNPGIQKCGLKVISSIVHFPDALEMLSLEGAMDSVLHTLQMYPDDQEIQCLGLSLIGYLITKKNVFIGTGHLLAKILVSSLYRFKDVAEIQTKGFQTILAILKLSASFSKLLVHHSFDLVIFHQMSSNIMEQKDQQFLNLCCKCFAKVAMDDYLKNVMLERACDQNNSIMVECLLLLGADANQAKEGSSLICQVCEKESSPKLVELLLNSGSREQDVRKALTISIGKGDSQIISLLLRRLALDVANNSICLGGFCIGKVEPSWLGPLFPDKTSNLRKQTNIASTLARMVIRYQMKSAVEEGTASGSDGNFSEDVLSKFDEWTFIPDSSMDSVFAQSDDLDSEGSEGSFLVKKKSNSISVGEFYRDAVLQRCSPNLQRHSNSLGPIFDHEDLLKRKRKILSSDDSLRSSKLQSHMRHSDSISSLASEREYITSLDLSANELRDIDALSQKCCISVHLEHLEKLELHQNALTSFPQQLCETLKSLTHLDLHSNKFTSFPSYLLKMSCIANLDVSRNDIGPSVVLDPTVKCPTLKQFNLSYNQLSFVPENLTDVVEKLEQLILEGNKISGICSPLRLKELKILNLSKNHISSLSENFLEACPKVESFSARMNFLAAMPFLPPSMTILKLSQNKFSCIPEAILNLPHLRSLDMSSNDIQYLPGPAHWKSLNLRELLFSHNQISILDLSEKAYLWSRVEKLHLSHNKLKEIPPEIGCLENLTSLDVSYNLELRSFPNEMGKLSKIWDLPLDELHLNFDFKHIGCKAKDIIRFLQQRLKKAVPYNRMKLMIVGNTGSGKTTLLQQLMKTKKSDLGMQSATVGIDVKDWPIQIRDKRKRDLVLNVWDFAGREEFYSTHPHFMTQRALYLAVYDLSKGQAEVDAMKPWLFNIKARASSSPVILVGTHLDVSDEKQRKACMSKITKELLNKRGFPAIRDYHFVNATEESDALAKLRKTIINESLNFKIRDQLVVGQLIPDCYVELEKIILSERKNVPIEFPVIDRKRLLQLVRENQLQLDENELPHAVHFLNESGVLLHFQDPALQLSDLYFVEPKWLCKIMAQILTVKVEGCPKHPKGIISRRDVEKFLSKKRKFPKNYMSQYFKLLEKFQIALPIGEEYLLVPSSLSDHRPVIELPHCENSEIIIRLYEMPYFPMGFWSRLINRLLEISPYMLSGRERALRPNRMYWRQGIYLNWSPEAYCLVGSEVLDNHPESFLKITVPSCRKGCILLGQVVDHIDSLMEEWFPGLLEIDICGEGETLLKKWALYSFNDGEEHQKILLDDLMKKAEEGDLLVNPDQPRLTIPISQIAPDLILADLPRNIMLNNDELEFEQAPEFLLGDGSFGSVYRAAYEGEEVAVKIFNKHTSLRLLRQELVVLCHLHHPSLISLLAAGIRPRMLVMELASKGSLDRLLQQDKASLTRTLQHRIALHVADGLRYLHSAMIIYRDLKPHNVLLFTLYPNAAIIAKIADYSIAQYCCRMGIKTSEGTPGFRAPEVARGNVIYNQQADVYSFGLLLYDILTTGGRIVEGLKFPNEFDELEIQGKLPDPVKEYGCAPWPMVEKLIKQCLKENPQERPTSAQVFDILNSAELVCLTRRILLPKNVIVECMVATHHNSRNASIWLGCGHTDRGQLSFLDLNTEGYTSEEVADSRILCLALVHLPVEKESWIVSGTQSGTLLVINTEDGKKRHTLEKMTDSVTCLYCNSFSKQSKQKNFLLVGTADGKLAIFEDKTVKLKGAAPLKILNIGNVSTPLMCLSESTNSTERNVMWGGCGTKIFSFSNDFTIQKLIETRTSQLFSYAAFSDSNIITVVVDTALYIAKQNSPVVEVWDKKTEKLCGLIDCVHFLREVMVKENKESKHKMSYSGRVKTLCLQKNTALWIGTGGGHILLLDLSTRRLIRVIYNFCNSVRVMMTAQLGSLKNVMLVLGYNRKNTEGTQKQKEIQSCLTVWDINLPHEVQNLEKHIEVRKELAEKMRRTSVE

Compound `CCNc1nc(Nc2cc(C(C)(C)n3nccn3)nn2C(C)C)ncc1C(F)(F)F` [Compound 86] returned an IC50 of less than 0.03 µM.

As to `CCNc1nc(Nc2cn(C(C)(C)C#N)nc2C)ncc1C(F)(F)F` [Compound 87], the IC50 was less than 0.03 µM.

Turning to `[2H]C([2H])([2H])C([2H])([2H])n1nc(C(C)(C)n2nccn2)cc1Nc1ncc(C(F)(F)F)c(NCC)n1` [Compound 88], the IC50 was less than 0.03 µM.

As for `[2H]C([2H])([2H])C([2H])([2H])Nc1nc(Nc2cn(C(C)(C)C#N)nc2C)ncc1C(F)(F)F` [Compound 89], the half-inhibitory concentration (IC50) is less than 0.03 µM.

Compound `CCNc1nc(Nc2cn(Cc3ccon3)nc2C2CC2)ncc1C(F)(F)F` [Compound 94] yielded an IC50 of less than 0.03 µM.

With `COc1nc(Nc2cn(Cc3cc[nH]n3)nc2C2CC2)ncc1Br` [Compound 95], the IC50 was less than 0.03 µM.

For `CCNc1nc(Nc2cn(C3CS(=O)(=O)C3)nc2C2CC2)ncc1Br` [Compound 96], the IC50 is less than 0.03 µM.

In the case of `CCNc1nc(Nc2cnn([C@H]3C[C@H](n4nccn4)C3)c2C2CC2)ncc1C(F)(F)F` [Compound 97], the IC50 was less than 0.03 µM.

Regarding `CCNc1nc(Nc2cnn(-c3cnccn3)c2Cl)ncc1C(F)(F)F` [Compound 98], the IC50 was less than 0.03 µM.

Compound `CCNc1nc(Nc2cnn([C@H]3C[C@@H](n4nccn4)C3)c2C2CC2)ncc1C(F)(F)F` [Compound 101] displayed a half-maximal inhibitory concentration (IC50) of less than 0.03 µM.

For the compound `CCNc1nc(Nc2cnn(-c3cnccn3)c2C2CC2)ncc1C(F)(F)F` [Compound 105, N2-(5-cyclopropyl-1-pyrazin-2-yl-pyrazol-4-yl)-N4-ethyl-5-(trifluoromethyl)pyrimidine-2,4-diamine], the IC50 is less than 0.03 µM.

Compound `CCNc1nc(Nc2cnn([C@H]3C[C@@H](N4CCN(CC(F)F)CC4)C3)c2C)ncc1C(F)(F)F` [Compound 106] yielded an IC50 of less than 0.03 µM.

Compound `CCNc1nc(Nc2cn(C3C[C@@H]3C#N)nc2C2CC2)ncc1C(F)(F)F` (stereo partly drawn) [Compound 107] gave an IC50 of less than 0.03 µM.

The compound `CCNc1nc(Nc2cn(C3(C)CCOC3=O)nc2C2CC2)ncc1C(F)(F)F` (stereo not drawn) [Compound 108] registered an IC50 of less than 0.03 µM.

For the compound `CNc1nc(Nc2c[nH]nc2C)ncc1C(F)(F)F` [Compound 109], the IC50 was less than 0.03 µM.

In the case of `CCNc1nc(Nc2cn(C3CS(=O)(=O)C3)nc2C2CC2)ncc1C(F)(F)F` [Compound 110, N2-[3-cyclopropyl-1-(1,1-dioxothietan-3-yl)pyrazol-4-yl]-N4-ethyl-5-(trifluoromethyl)pyrimidine-2,4-diamine], the IC50 was less than 0.03 µM.

The compound `CCNc1nc(Nc2cn(S(C)(=O)=O)nc2C2CC2)ncc1Br` [Compound 111] returned an IC50 of less than 0.03 µM.

As for `CCNc1nc(Nc2cn(S(C)(=O)=O)nc2C2CC2)ncc1C(F)(F)F` [Compound 112], the IC50 was less than 0.03 µM.

Take `CCNc1nc(Nc2cnn(C3CC(N4CCN(CC(F)F)CC4)C3)c2C)ncc1C(F)(F)F` (stereo not drawn) [Compound 121]: the IC50 was less than 0.03 µM.

For the compound `CCNc1nc(Nc2cc(C(C)(C)n3nccn3)nn2C2CC2)ncc1Br` [Compound 126], the IC50 is less than 0.03 µM.

Compound `CCNc1nc(Nc2cc(C(C)(C)n3nccn3)nn2C2CCC2)ncc1C(F)(F)F` [Compound 127] returned an IC50 of less than 0.03 µM.

`CNc1nc(Nc2cc(C(C)(C)c3ncccn3)nn2C2CC2)ncc1C(F)(F)F` [Compound 128] gave an IC50 of less than 0.03 µM.

As for `CCNc1nc(Nc2cc(C(C)(C)n3nccn3)nn2CC)ncc1C(F)(F)F` [Compound 129], the half-maximal inhibitory concentration (IC50) is less than 0.03 µM.

Consider `CCNc1nc(Nc2cc(C(=O)N(C)C)nn2C2CC2)ncc1C(F)(F)F` [Compound 130], for which the IC50 is less than 0.03 µM.

As for `CCNc1nc(Nc2cc(S(C)(=O)=O)nn2C2CC2)ncc1C(F)(F)F` [Compound 132], the IC50 was less than 0.03 µM.

In the case of `CCNc1nc(Nc2cc(C#N)nn2C2CC2)ncc1C(F)(F)F` [Compound 133], the IC50 was greater than 0.06 µM.

The compound `CCNc1nc(Nc2cc(C(C)(C)O)nn2C2CC2)ncc1C(F)(F)F` [Compound 134] had an IC50 of less than 0.03 µM.

`CCNc1nc(Nc2cc(C(C)=O)nn2C2CC2)ncc1C(F)(F)F` [Compound 135] showed an IC50 greater than 0.06 µM.

Turning to `CCNc1nc(Nc2cc(C3(C)CCC(=O)N3)nn2C2CC2)ncc1C(F)(F)F` (stereo not drawn) [Compound 136], the IC50 fell in the range of 0.03 to 0.06 µM.

The compound `CCNc1nc(Nc2cc(C(C)n3nccn3)nn2C2CC2)ncc1C(F)(F)F` (stereo not drawn) [Compound 137] showed an IC50 of less than 0.03 µM.

With `CCNc1nc(Nc2cc(C(C)(C)S(C)(=O)=O)nn2C2CC2)ncc1C(F)(F)F` [Compound 139], the IC50 is less than 0.03 µM.

`CCNc1nc(Nc2cc(C(C)(C)S(C)(=O)=O)nn2C2CC2)ncc1Br` [Compound 140] displayed an IC50 of less than 0.03 µM.

The compound `CCNc1nc(Nc2cc(-c3ncoc3C)nn2C2CC2)ncc1C(F)(F)F` [Compound 142] registered an IC50 of less than 0.03 µM.

The compound `CCNc1nc(Nc2cc([C@@]3(C)CCOC3=O)nn2C2CC2)ncc1C(F)(F)F` [Compound 144, (3R)-3-[1-cyclopropyl-5-[[4-(ethylamino)-5-(trifluoromethyl)pyrimidin-2-yl]amino]pyrazol-3-yl]-3-methyl-tetrahydrofuran-2-one] had an IC50 of less than 0.03 µM.

With `CCNc1nc(Nc2cc(C3(C)COC3)nn2C2CC2)ncc1C(F)(F)F` [Compound 145], the 50% inhibitory concentration (IC50) was less than 0.03 µM.

For `CCNc1nc(Nc2cc(C(C)n3nccn3)nn2C2CC2)ncc1Br` (stereo not drawn) [Compound 146], the IC50 is less than 0.03 µM.

Compound `CCNc1nc(Nc2cc(C3(C)COC3)nn2C2CC2)ncc1Br` [Compound 148] came in with a 50% inhibitory concentration (IC50) of less than 0.03 µM.

`CCNc1nc(Nc2cc(CN3CCCC3=O)nn2C2CC2)ncc1C(F)(F)F` [Compound 149]: the IC50 lay within 0.03 to 0.06 µM.

`CCNc1nc(Nc2cc(C3(C)CCOC3=O)nn2C2CC2)ncc1Br` (stereo not drawn) [Compound 151]: the IC50 was less than 0.03 µM.

In turn, `CCNc1nc(Nc2cc([C@H]3C[C@@H]3C#N)nn2C2CC2)ncc1C(F)(F)F` [Compound 152] showed a half-inhibitory concentration (IC50) of less than 0.03 µM.

`CCNc1nc(Nc2cc(N3CCCC3=O)nn2C2CC2)ncc1C(F)(F)F` [Compound 153, 1-(1-cyclopropyl-5-((4-(ethylamino)-5-(trifluoromethyl)pyrimidin-2-yl)amino)-1H-pyrazol-3-yl)pyrrolidin-2-one] came in with a 50% inhibitory concentration (IC50) of less than 0.03 µM.

`CCNc1nc(Nc2cc(N3CCCS3(=O)=O)nn2C2CC2)ncc1C(F)(F)F` [Compound 154] yielded an IC50 of less than 0.03 µM.

The compound `CNc1nc(Nc2cc(C3(C)CCOC3=O)nn2C2CC2)ncc1C(F)(F)F` (stereo not drawn) [Compound 156] displayed a 50% inhibitory concentration (IC50) of less than 0.03 µM.

Take `COc1nc(Nc2cc(C(C)(C)n3nccn3)nn2C2CC2)ncc1Br` [Compound 157]: the IC50 is 0.03 to 0.06 µM.

Regarding `CCNc1nc(Nc2cc(N3CCCC3=O)nn2C2CC2)ncc1Br` [Compound 158], the IC50 is less than 0.03 µM.

`CCNc1nc(Nc2cc(N3CCCS3(=O)=O)nn2C2CC2)ncc1Br` [Compound 159] showed an IC50 of less than 0.03 µM.

The compound `CCNc1nc(Nc2cc([C@@]34C[C@@H]3COC4=O)nn2C2CC2)ncc1C(F)(F)F` [Compound 162, (1R,5S)-1-[1-cyclopropyl-5-[[4-(ethylamino)-5-(trifluoromethyl)pyrimidin-2-yl]amino]pyrazol-3-yl]-3-oxabicyclo[3.1.0]hexan-2-one] displayed an IC50 of less than 0.03 µM.

`CNc1nc(Nc2cc([C@@]34C[C@@H]3COC4=O)nn2C2CC2)ncc1C(F)(F)F` [Compound 163]: the IC50 is less than 0.03 µM.

In turn, `CCNc1nc(Nc2cc([C@H]3C[C@H]3C#N)nn2C2CC2)ncc1C(F)(F)F` [Compound 164] registered a concentration for half-maximal inhibition (IC50) of less than 0.03 µM.

For the compound `CCNc1nc(Nc2cc([C@]34C[C@H]3COC4=O)nn2C2CC2)ncc1C(F)(F)F` [Compound 165], the IC50 is less than 0.03 µM.

`CCNc1nc(Nc2cc(C3(C)CCn4ccnc43)nn2C2CC2)ncc1C(F)(F)F` (stereo not drawn) [Compound 166] gave an IC50 greater than 0.06 µM.

The compound `CCNc1nc(Nc2cc(C3(C)CCn4ccnc43)nn2C2CC2)ncc1C(F)(F)F` (stereo not drawn) [Compound 167] returned an IC50 of less than 0.03 µM.

Regarding `CNc1nc(Nc2cc([C@]34C[C@H]3COC4=O)nn2C2CC2)ncc1C(F)(F)F` [Compound 168], the IC50 is less than 0.03 µM.

The compound `CCNc1nc(Nc2cc([C@H]3C[C@H]3C(=O)OCC)nn2C2CC2)ncc1C(F)(F)F` [Compound 169] registered a half-maximal inhibitory concentration (IC50) of less than 0.03 µM.

On to `CCNc1nc(Nc2cc([C@H]3C[C@H]3C(N)=O)nn2C2CC2)ncc1C(F)(F)F` [Compound 170], for which the IC50 was less than 0.03 µM.

The compound `CCNc1nc(Nc2cc(C3(C)CCn4ncnc43)nn2C2CC2)ncc1C(F)(F)F` (stereo not drawn) [Compound 171] had an IC50 greater than 0.06 µM.

`[2H]C([2H])([2H])n1nc(C2(C)CCOC2=O)cc1Nc1ncc(C(F)(F)F)c(NCC)n1` (stereo not drawn) [Compound 173] returned a concentration for half-maximal inhibition (IC50) of less than 0.03 µM.

Regarding `[2H]C([2H])([2H])n1nc(C2(C)CCOC2=O)cc1Nc1ncc(C(F)(F)F)c(NCC)n1` (stereo not drawn) [Compound 174], the IC50 was less than 0.03 µM.

`[2H]C([2H])([2H])n1nc(C2(C)CCOC2=O)cc1Nc1ncc(C(F)(F)F)c(NC)n1` (stereo not drawn) [Compound 175] came in with a 50% inhibitory concentration (IC50) of less than 0.03 µM.

Compound `[2H]C([2H])([2H])n1nc(C2(C)CCOC2=O)cc1Nc1ncc(C(F)(F)F)c(NC)n1` (stereo not drawn) [Compound 176] had an IC50 of less than 0.03 µM.

Compound `CNc1nc(Nc2cc(C3(C)CCn4ccnc43)nn2C2CC2)ncc1C(F)(F)F` (stereo not drawn) [Compound 177] yielded an IC50 greater than 0.06 µM.

`CNc1nc(Nc2cc(C3(C)CCn4ccnc43)nn2C2CC2)ncc1C(F)(F)F` (stereo not drawn) [Compound 178] showed an IC50 of less than 0.03 µM.

Compound `CCNc1nc(Nc2ccnn2[C@H]2C[C@@H](O)C2)ncc1C(F)(F)F` [Compound 179] showed an IC50 of less than 0.03 µM.

Values taken from patent US9932325B2 (Denali Therapeutics Inc., priority 2015, dated 2018).
